What all share (format): biochemical
Assay [1] concerns the target T1, BChE (Equus caballus, UniProt P81908).
T1 construct: BChE from equine serum (C4290: Sigma-Aldrich); purchased Sigma-Aldrich C4290; host or cells: equine serum
Put plainly: BChE activity assay (Ellman method). An excerpt:
(§1) In this study, hCA I and II were obtained from fresh human erythrocytes using affinity chromatography as previously described in the literature.[36],[37] AChE from Electrophorus electricus (electric eel) (C3389: Sigma-Aldrich), BChE from equine serum (C4290: Sigma-Aldrich), and the other chemicals (4-nitrophenyl acetate (N8130: Sigma-Aldrich), 5,5′-dithiobis(2-nitrobenzoic acid) (D218200: Sigma-Aldrich), acetylthiocholine iodide (A5771: Sigma-Aldrich), butyrylthiocholine iodide (B3253: Sigma-Aldrich)) were purchased from local representatives of well-known commercial companies. On the other hand, the absorbance rates of each compound were determined by a microplate spectrophotometer (Multiskan Go, Thermo Scientific).
(§2) The evaluation of the inhibitory characteristics of all synthesized compounds against AChE and BChE was conducted using the widely recognized Ellman method,[41] as described in pertinent literature sources.[2],[14],[18]
On the technique in general: DTNB colorimetry detects thiols as they appear.

The target of assay [2] is T2, hCA II (Homo sapiens, UniProt P00918).
T2 construct: from tissue; host or cells: fresh human erythrocytes
Put plainly: hCA II activity assay (Verpoorte esterase method). The settings on record: mean from at least three determinations.
Description: as §1
In this study, we conducted hCA I and II activity assays using the Verpoorte method, as outlined in previous literature.[38] The inhibitory activities of all of the newly synthesized compounds were thoroughly tested. The inhibitory activity of each molecule was examined in triplicate at each concentration. Different concentrations were employed for all inhibitors tested in this study, respectively. The baseline activity in the control cuvette, without any inhibitory agent, was established as 100%. AZA was used as a positive control compound.

Assay [3] concerns the target T3, AChE (Electrophorus electricus, UniProt O42275).
T3 construct: purchased Sigma-Aldrich C3389
In words: AChE activity assay (Ellman method). The settings on record: for IC50: mean from at least three determinations.
Description: as §1, §2

Assay [4] concerns the target T4, hCA I (Homo sapiens, UniProt P00915).
T4 construct: from tissue; host or cells: fresh human erythrocytes
In words: biochemical. The settings on record: for IC50: mean from at least three determinations.
Description: as §1
In this study, we conducted hCA I and II activity assays using the Verpoorte method, as outlined in previous literature.[38] The inhibitory activities of all of the newly synthesized compounds were thoroughly tested. The inhibitory activity of each molecule was examined in triplicate at each concentration. Different concentrations were employed for all inhibitors tested in this study, respectively. The baseline activity in the control cuvette, without any inhibitory agent, was established as 100%.

Setting [5] is: mean from at least three determinations, read-out: IC50 BChE.
The mark [6] stands for this setting: ratio of IC50 values vs neostigmine.

Like-named read-outs stand apart in the source and are kept apart here.

The values that follow come from article PMC11079868, “Synthesis of Novel Hydrazide–Hydrazone Compounds and In Vitro and In Silico Investigation of Their Biological Activities against AChE, BChE, and hCA I and II” (ACS Omega, 2024).

T1 sequence (P81908 whole entry): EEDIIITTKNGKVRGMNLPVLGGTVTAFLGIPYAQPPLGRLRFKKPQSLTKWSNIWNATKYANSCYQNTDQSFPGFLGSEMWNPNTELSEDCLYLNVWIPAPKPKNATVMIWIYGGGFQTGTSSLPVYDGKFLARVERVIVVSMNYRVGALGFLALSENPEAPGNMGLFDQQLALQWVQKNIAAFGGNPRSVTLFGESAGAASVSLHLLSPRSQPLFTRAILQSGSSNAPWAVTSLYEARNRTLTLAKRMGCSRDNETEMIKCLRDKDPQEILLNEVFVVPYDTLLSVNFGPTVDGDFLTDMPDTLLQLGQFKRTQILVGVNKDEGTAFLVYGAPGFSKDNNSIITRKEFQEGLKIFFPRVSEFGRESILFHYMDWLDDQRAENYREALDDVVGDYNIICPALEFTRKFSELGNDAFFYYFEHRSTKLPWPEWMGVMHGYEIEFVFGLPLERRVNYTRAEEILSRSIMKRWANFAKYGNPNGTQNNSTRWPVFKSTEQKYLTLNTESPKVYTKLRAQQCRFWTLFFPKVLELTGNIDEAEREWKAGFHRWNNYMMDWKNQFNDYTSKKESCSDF
T4 sequence (P00915 whole entry): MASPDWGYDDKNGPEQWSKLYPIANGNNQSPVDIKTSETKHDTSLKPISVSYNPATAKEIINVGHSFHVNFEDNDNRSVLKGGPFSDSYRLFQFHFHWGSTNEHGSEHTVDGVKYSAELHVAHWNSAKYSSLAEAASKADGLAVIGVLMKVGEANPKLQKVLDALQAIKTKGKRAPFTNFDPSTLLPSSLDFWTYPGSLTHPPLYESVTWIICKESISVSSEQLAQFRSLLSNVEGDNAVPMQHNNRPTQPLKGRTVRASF
T3 sequence (O42275 24-633): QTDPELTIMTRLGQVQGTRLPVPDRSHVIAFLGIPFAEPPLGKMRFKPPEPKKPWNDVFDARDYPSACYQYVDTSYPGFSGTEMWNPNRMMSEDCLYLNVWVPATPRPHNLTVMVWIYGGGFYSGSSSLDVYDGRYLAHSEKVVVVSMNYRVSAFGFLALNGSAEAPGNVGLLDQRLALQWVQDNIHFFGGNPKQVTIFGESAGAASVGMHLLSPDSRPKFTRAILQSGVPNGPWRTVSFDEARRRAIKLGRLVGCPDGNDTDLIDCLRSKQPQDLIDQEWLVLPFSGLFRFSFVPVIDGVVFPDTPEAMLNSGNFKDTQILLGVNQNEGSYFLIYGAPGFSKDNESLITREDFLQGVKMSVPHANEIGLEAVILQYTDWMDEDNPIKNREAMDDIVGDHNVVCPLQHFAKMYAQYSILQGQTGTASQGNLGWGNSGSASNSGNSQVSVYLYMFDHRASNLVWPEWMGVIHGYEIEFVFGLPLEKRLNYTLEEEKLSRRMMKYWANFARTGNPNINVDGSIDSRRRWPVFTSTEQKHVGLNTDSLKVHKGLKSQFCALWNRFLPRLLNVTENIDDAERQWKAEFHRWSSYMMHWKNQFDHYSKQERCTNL

For orientation: IC50 means the point on the concentration scale where inhibition reaches its midpoint. Regarding `CN(C)c1ccc(C(=O)Oc2ccccc2C=O)cc1` [compound 1, 2-Formylphenyl 4-(Dimethylamino)benzoate], the IC50 in assay [1] (setting [5]) came to 43.5 ± 0.75 nM; in assay [2] it was 13.7 ± 0.27 nM; in assay [3], 51.1 ± 0.88 nM; in assay [4], 27.5 ± 0.51 nM.

As to `CN(C)c1ccc(C(=O)Oc2ccc(C=O)cc2)cc1` [compound 2, 4-Formylphenyl 4-(Dimethylamino)benzoate], the IC50 turned out to be 41.5 ± 0.68 nM in assay [1] (setting [5]), 12.2 ± 0.21 nM in assay [2], 48.5 ± 0.81 nM in assay [3] and 25.6 ± 0.47 nM in assay [4].

Take `COc1cccc(C=O)c1OC(=O)c1ccc(N(C)C)cc1` [compound 3, 2-Formyl-6-methoxyphenyl 4-(Dimethylamino)benzoate]: the IC50 in assay [1] (setting [5]) was determined as 51.3 ± 0.89 nM; in assay [2], 16.1 ± 0.33 nM; in assay [3] it was 59.5 ± 0.96 nM; in assay [4], 39.6 ± 0.72 nM.

`COc1ccc(C=O)cc1OC(=O)c1ccc(N(C)C)cc1` [compound 4, 5-Formyl-2-methoxyphenyl 4-(Dimethylamino)benzoate]: the IC50 in assay [1] (setting [5]) came to 53.1 ± 0.91 nM; in assay [2] it was 15.4 ± 0.32 nM; in assay [3], 60.2 ± 1.02 nM; in assay [4], 38.1 ± 0.65 nM.

As to `COc1cc(C=O)ccc1OC(=O)c1ccc(N(C)C)cc1` [compound 5, 4-Formyl-2-methoxyphenyl 4-(Dimethylamino)benzoate], the IC50 in assay [1] (setting [5]) turned out to be 54.7 ± 0.91 nM; in assay [2], 20.4 ± 0.35 nM; in assay [3], 61.4 ± 1.12 nM; in assay [4] it was 39.1 ± 0.71 nM.

In the case of `CN(C)c1ccc(C(=O)Oc2ccc3ccccc3c2C=O)cc1` [compound 6, 1-Formylnaphthalen-2-yl 4-(Dimethylamino)benzoate], the IC50 in assay [1] (setting [5]) was found to be 25.2 ± 0.42 nM; in assay [2], 24.7 ± 0.43 nM; in assay [3], 28.2 ± 0.52 nM; in assay [4], 45.1 ± 0.82 nM.

As for `CN(C)c1ccc(C(=O)Oc2ccccc2C=NNC(=O)c2cccnc2)cc1` [compound 7, 2-((2-Nicotinoylhydrazono)methyl)phenyl 4-(Dimethylamino)benzoate], the IC50 in assay [1] (setting [5]) was determined as 45.3 ± 0.82 nM; in assay [2] it was 8.03 ± 0.14 nM; in assay [3], 48.6 ± 0.79 nM; in assay [4] it was 29.1 ± 0.53 nM.

In the case of `CN(C)c1ccc(C(=O)Oc2ccc(C=NNC(=O)c3cccnc3)cc2)cc1` [compound 8, 4-((2-Nicotinoylhydrazono)methyl)phenyl 4-(Dimethylamino)benzoate], the IC50 in assay [1] (setting [5]) was found to be 43.4 ± 0.83 nM; in assay [2], 7.12 ± 0.12 nM; in assay [3] it was 46.3 ± 0.75 nM; in assay [4], 21.4 ± 0.39 nM. In assay [4] (ratio of IC50 values vs AZA), the “inhibition of hCA I relative to AZA” value turned out to be 13 fold.

For the compound `COc1cccc(C=NNC(=O)c2cccnc2)c1OC(=O)c1ccc(N(C)C)cc1` [compound 9, 2-Methoxy-6-((2-nicotinoylhydrazono)methyl)phenyl 4-(Dimethylamino)benzoate], the IC50 in assay [1] (setting [5]) was 39.6 ± 0.71 nM; in assay [2], 12.5 ± 0.21 nM; in assay [3], 43.2 ± 0.81 nM; in assay [4], 35.7 ± 0.74 nM.

For `COc1ccc(C=NNC(=O)c2cccnc2)cc1OC(=O)c1ccc(N(C)C)cc1` [compound 10, 2-Methoxy-5-((2-nicotinoylhydrazono)methyl)phenyl 4-(Dimethylamino)benzoate], the IC50 in assay [1] (setting [5]) was determined as 29.7 ± 0.54 nM; in assay [2], 11.8 ± 0.22 nM; in assay [3] it was 29.6 ± 0.53 nM; in assay [4] it was 32.5 ± 0.73 nM.

On to `COc1cc(C=NNC(=O)c2cccnc2)ccc1OC(=O)c1ccc(N(C)C)cc1` [compound 11, 2-Methoxy-4-((2-nicotinoylhydrazono)methyl)phenyl 4-(Dimethylamino)benzoate], for which the IC50 in assay [1] (setting [5]) came to 28.6 ± 0.5 nM; in assay [2] it was 11.6 ± 0.22 nM; in assay [3], 28.6 ± 0.52 nM; in assay [4], 32.2 ± 0.72 nM.

On to `CN(C)c1ccc(C(=O)Oc2ccc3ccccc3c2C=NNC(=O)c2cccnc2)cc1` [compound 12, 1-((2-Nicotinoylhydrazono)methyl)naphthalen-2-yl 4-(Dimethylamino)benzoate], for which the IC50 turned out to be 18.4 ± 0.36 nM in assay [1] (setting [5]), 23.5 ± 0.41 nM in assay [2], 21.4 ± 0.38 nM in assay [3] and 42.7 ± 0.81 nM in assay [4]. The “inhibition of BChE relative to neostigmine” value in assay [1] (setting [6]) is on record as “approximately 5 fold”; in assay [1] (ratio vs neostigmine, Conclusions text), “approximately 4 times”. For the same compound, the “inhibition of AChE relative to neostigmine” value in assay [3] (setting [6]) is “more than 6 fold”. In assay [3] (ratio of IC50 values vs rivastigmine), the “inhibition of AChE relative to rivastigmine” value was “approximately 3 fold”.

For the compound `CN(C)C(=O)Oc1cccc([N+](C)(C)C)c1` [neostigmine, reference compound], half-maximal inhibition in assay [1] (IC50) was put at 84 ± 1.07 nM.
